Source: patent publication US9469652B2, “ERK inhibitors” (Eli Lilly and Company, priority 2014, dated 2016)

Experiments:
[1] = test system: human non-small cell lung cancer cells A549 (KRAS_G12S); assay: In vivo combination study, A549 NSCLC xenograft model; design: species or system female CB-17 SCID mice; settings: single agent
Protocol: (§1) More specifically, the compound of Example 1 is tested in combination with either the pan-RAF inhibitor compound or the CDK4/6 inhibitor compound in HCT116, a KRAS mutant colorectal cancer xenograft model. Also, the compound of Example 1 is tested in combination with either the CDK4/6 inhibitor compound or DC101 in NCI-H441, A549, and NCI-H2122, KRAS mutant non-small cell lung cancer (NSCLC) xenograft models.
Combination efficacy is also tested in three KRAS mutant NSCLC xenograft models including A549 (KRAS_G12S) in SCID mice as well as NCI-H441 (KRAS_G12V) and NCI-H2122 (KRAS_G12C) in athymic nude mice. Expand human non-small cell lung cancer cells NCI-H441 (ATCC, #CRL-5807) and NCI-H2122 (ATCC, #CRL-5985) in culture, harvest and inject 5×10e^6 cells in 200 μL of 1:1 HBSS+matrigel solution subcutaneously on to the rear right flank of female athymic nude mice (20-22 gm, Harlan Laboratories). Expand human non-small cell lung cancer cells A549 (ATCC, #CC1-185) in culture, harvest and inject 5×10e^6 cells in 200 μL of 1:1 HBSS+matrigel solution subcutaneously on to the rear right flank of female CB-17 SCID mice (18-20 gm, Taconic Farms). For all cell lines, measure tumor growth and body weight twice per week beginning the seventh day after the implantation. When average tumor sizes reach 200-300 mm^3, randomize animals and group into groups of five to seven animals. Prepare test compound in an appropriate vehicle (see below) and administer by oral gavage (compound of Example 1 and the CDK4/6 inhibitor compound) or intraperitoneally (DC101) for 21 to 28 days. Tumor response is determined by tumor volume measurement performed twice a week during the course of treatment. Vehicle used in these studies is 1% HEC/0.25% Tween® 80/0.05% Antifoam. The compound of Example 1 is formulated in 1% HEC/0.25% Tween® 80/0.05% Antifoam and the CDK4/6 inhibitor compound is formulated in 1% HEC in 25 mM sodium phosphate buffer, pH 2. […] In the same NCI-H441 xenograft model, DC101 in phosphate buffer is also administered intraperitoneally twice per week (BIW) as a single agent or in combination with the compound of Example 1, 50 mpk, QD for 28 days.

ERK2 = target: T1, ERK2 (Homo sapiens, UniProt P28482); assay: ERK2 Kinase Assay (TR-FRET); assay type: biochemical; settings: Abs_IC50, ATP 10 μM, GFP-ATF2 substrate; ±0.24, n=7
T1 construct: purchased Invitrogen PV3595B
Protocol: The purpose of this assay is to measure the ability of compounds to inhibit ERK2 kinase activity. Perform the ERK2 kinase assay in vitro using a TR-FRET assay. Start all reactions (12.5 μL) by adding 5 μL of ERK2 enzyme (Invitrogen, #PV3595B, final conc 50 ng/mL) plus substrate GFP-ATF2 (Invitrogen, #PV4445, final conc 0.2 μM), 5 μL of ATP solution (Invitrogen, #PV3227, final conc 10 μM) prepared in kinase buffer (50 mM Hepes pH 7.4, 5 mM MgCl2, 0.1 mM EGTA, 0.01% Triton X-100, 1 mM DTT) and 2.5 μL of testing compounds in DMSO solution (final 4%, v/v) in a 384-well PROXIPLATE™ (Perkin Elmer, #GRN6260). Incubate reactions at room temperature for 60 minutes. Stop reactions by addition of 12.5 μL of stop buffer (10 mM EDTA, 2 nM Tb-anti-pATF2 (pThr71) antibody, Invitrogen, #PV4448) in TR-FRET dilution buffer (Invitrogen, #PV3574). Incubate the plates at room temperature for an additional 60 minutes and read ON ENVISION® (PerkinElmer) plate reader at the excitation wavelength of 340 nm Calculate a TR-FRET ratio by dividing the GFP acceptor emission signal (at 520 nm) by the Tb donor emission signal (at 495 nm). Calculate percent inhibition using compound wells relative to on-plate Max (DMSO control) and Min (No enzyme added) control wells TR-FRET ratio data {% inhibition=100−[(test compound−median Min)/(median Max−median Min)×100]}. […]

[2] = test system: human colorectal cancer cells HCT116; assay: In vivo combination study, HCT116 KRAS mutant colorectal cancer xenograft model; settings: oral, 28 days, single agent
Protocol: as §1
The HCT116 combination efficacy study is done in athymic nude rats. Expand human colorectal cancer cells HCT116 (ATCC, #CCL-247) in culture, harvest and inject 5×10e^6 cells in 200 μL of 1:1 HBSS+matrigel solution subcutaneously on to the rear right flank of female NIH nude rats (120-145 gm, Taconic Farms). Measure tumor growth and body weight twice per week beginning the seventh day after the implantation. When average tumor sizes reach 200-300 mm^3, randomize animals and group into groups of five to seven animals. Prepare test compound in an appropriate vehicle (see below) and administer by oral gavage for 21 to 28 days. Tumor response is determined by tumor volume measurement performed twice a week during the course of treatment. Vehicle used in this study is 1% HEC (hydroxy ethyl cellulose)/0.25% Tween® 80/0.05% Antifoam. The compound of Example 1 and the pan-RAF inhibitor compound are formulated in 1% HEC/0.25% Tween® 80/0.05% Antifoam. The CDK4/6 inhibitor compound is formulated in 1% HEC in 25 mM Sodium phosphate buffer, pH 2.

T1 sequence (P28482 whole entry): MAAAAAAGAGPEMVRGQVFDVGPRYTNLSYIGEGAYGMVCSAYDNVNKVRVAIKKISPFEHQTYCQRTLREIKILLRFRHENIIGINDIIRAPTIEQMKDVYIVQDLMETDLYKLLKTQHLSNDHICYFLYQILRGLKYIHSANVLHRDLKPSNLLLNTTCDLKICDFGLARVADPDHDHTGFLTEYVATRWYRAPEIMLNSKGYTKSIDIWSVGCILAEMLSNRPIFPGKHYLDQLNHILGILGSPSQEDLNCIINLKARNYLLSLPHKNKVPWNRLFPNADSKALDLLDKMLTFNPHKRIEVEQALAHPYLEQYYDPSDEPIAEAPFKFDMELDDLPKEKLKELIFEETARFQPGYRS

SMILES: Cn1nccc1Nc1nccc(-c2cc3c(s2)C(C)(C)N(CCN2CCOCC2)C3=O)n1 [Example 1, 6,6-Dimethyl-2-{2-[(1-methyl-1H-pyrazol-5-yl)amino]pyrimidin-4-yl}-5-[2-(morpholin-4-yl)ethyl]-5,6-dihydro-4H-thieno[2,3-c]pyrrol-4-one]
- Delta T/C % ([1]; 50 mg/kg QD, oral, 28 days): 9%
- tumor growth inhibition ([1]; 50 mpk): 91%
- IC50 (ERK2): 5.24 nM
- Delta T/C % ([2]; 10 mg/kg QD): 48%
- TGI % ([2]; 10 mg/kg QD): 52%
- Delta T/C % ([2]; 20 mg/kg QD): 36%
- TGI % ([2]; 20 mg/kg QD): 64%
